Source: publication PMC12655733, “Design, Synthesis and Evaluation of the First 2-Alkynyl(aza)indole ^18F Probe Targeting α-Synuclein Aggregates” (Pharmaceuticals, 2025)
Like-named read-outs stand apart in the source and are kept apart here.

How the values were obtained:
α-syn fibrils [1] = target: T1, α-syn fibrils (Homo sapiens, UniProt P37840); conditions: cited from earlier work
T1 construct: made in house; host or cells: Escherichia coli BL21(DE3)

Aβ fibrils = conditions: cited from earlier work
tau fibrils = conditions: cited from earlier work
Aβ1-42 fibrils [2] = target: T2, Aβ1-42 fibrils (Homo sapiens, UniProt P05067); test: Inhibition of thioflavin T binding to Aβ1-42 fibrils (fluorescence competition), Ki determination; conditions: calculated from IC50, competition with ThT 500 nM, fibrils 500 nM, mean ± SD of 3 experiments; read-out: Ki Aβ
T2 construct: Wild-type α-syn and Aβ1-42 were expressed; made in house; host or cells: Escherichia coli BL21(DE3)
T2 sequence (P05067 672-713): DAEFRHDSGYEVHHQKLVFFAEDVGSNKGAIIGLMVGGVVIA
Protocol: (§1) Wild-type α-syn and Aβ1-42 were expressed in the Escherichia coli strain BL21(DE3) (Stratagene, La Jolla, CA, USA) and purified as described. […] For the Aβ1-42 peptide, the concentration was determined by a fluorometric method using the reactive compound fluorescamine (Sigma, San Jose, CA, USA) that reacts with primary amino groups to form a fluorescent product. The human Tau protein (isoform h2N4RTau) was expressed in the pET11d vector in the Escherichia coli strain BL21(DE3) (Stratagene, La Jolla, CA, USA) and purified as described.
(§2) For assembly into fibrils, α-syn was incubated in 50 mM Tris-HCl, pH 7.5, 150 mM KCl at 37 °C under continuous shaking for 4 days. Lyophilized Aβ1-42 was dissolved in 1,1,1,3,3,3-hexafluoro-2-propanol (HFIP) at a concentration of 0.2 mg/mL and incubated for 24 h at 37 °C to achieve complete solubilization. HFIP was evaporated under a nitrogen stream to obtain a dry film. To start assembly into fibrils, the dry peptide was resuspended in PBS pH 7.4, 10% (v/v) DMSO and incubated at 37 °C without shaking for 3 days. The Tau protein was assembled in fibrils in a PBS buffer containing 1 mM of DTT in the presence of 1/12 heparin (v/v) at 37 °C under shaking. […] Protein fibrils were systematically examined by transmission electron microscopy (TEM) in a Jeol 1400 transmission electron microscope following adsorption onto carbon-coated 200 mesh grids and negative staining with 1% uranyl acetate. The images were recorded with a Gatan Orius CCD camera (Gatan, Pleasanton, CA, USA). Finally, the percentage of α-syn or Aβ1-42 aggregated into fibrils was assessed by pelleting fibrils at 40,000× g for 20 min and by determining the concentration of soluble protein/peptide remaining in the supernatant.
(§3) The samples were incubated for 1 h at room temperature to achieve complete equilibration.

[3] = target: T3, Tau fibrils (isoform h2N4RTau) (Homo sapiens, UniProt P10636); test: Inhibition of thioflavin T binding to Tau fibrils (fluorescence competition), Ki determination; conditions: calculated from IC50, competition with ThT 500 nM, fibrils 200 nM, mean ± SD of 3 experiments
T3 construct: made in house; host or cells: Escherichia coli BL21(DE3), pET11d vector
T3 sequence (P10636 1-441 isoform P10636-8): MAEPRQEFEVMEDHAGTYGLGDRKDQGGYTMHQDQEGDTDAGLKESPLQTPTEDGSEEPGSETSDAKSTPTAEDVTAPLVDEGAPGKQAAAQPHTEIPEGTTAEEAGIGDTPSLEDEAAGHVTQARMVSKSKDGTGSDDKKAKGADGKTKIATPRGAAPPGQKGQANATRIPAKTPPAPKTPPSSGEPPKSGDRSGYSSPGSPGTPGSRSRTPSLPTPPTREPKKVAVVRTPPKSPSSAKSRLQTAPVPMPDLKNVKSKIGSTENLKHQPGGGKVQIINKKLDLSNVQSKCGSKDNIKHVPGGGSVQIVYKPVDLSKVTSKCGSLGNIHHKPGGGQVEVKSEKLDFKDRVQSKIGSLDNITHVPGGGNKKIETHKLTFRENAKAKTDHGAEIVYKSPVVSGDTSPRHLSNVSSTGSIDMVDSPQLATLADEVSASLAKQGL
Protocol: as §1, §2, §3

α-syn fibrils [4] = target: T1, α-syn fibrils; test: Inhibition of thioflavin T binding to α-syn fibrils (fluorescence competition), Ki determination
Protocol: as §1, §2, §3

Aβ1-42 fibrils [5] = target: T2, Aβ1-42 fibrils; test: Direct fluorescence titration on Aβ1-42 fibrils: Kd and Bmax; type: binding; conditions: direct assay on fibrils, mean ± SD of 3 experiments; read-out: Kd Aβ
Source text: (§4) In view of the interesting properties of compounds 33–39, we decided to switch to azaindole structures and to study the impact of the position of the nitrogen atom in the 6-membered ring on binding to fibrils. At this step we measured, in addition to the Ki values, the direct binding of each compound to fibrils through the fluorescence in the fraction bound to fibrils, which allowed us to determine the affinity values (Kd, Table 1). […] We therefore prepared a fluorinated derivative of compound 43, i.e., 45.
(§5) Fresh solutions of each tested compound (2.5 mM in DMSO) were diluted in PBS pH 7.4 at concentrations ranging from 0.5 nM to 5 µM in the presence or absence of α-syn, Aβ1-42, or Tau fibrils (200 nM, 500 nM, or 200 nM, respectively) in a final volume of 2 mL. After 1 h incubation at room temperature, the binding of each compound to α-syn, Aβ1-42, or Tau fibrils was assessed by fluorescence measurements using the appropriate excitation/emission wavelengths (i.e., those yielding the highest fluorescence ratio between fibril-bound and free compound). For any given concentration of compound added to the fibrils, the concentrations of compound bound to the fibrils and free in solution were determined on the basis of the measured fluorescence. Since at each point of the titration: Fm = FB × B + FF × (T − B) where Fm is the measured fluorescence of the compound in the presence of fibrils at a given compound concentration T, FB is the specific molar fluorescence of the bound compound, FF is the specific molar fluorescence of the free compound, and B is the concentration of compound bound to the fibrils at any point of the titration. FF was determined by measuring the fluorescence of known compound concentrations in the absence of fibrils. FB was determined by measuring the maximum fluorescence of known compound concentrations upon saturation with α-syn, Aβ1-42, or Tau fibrils.
(§6) Therefore, at each point of the titration, the concentration of bound compound B could be determined and was B = (Fm − FF × T)/FB − FF. The B values thus determined versus the respective concentrations of free compound were analyzed by fitting to the Michaelis-Menten equation.

α-syn fibrils [6] = target: T1, α-syn fibrils; test: Direct fluorescence titration on α-syn fibrils: Kd and Bmax; type: binding; conditions: direct assay on fibrils, mean ± SD of 3 experiments
Source text: as §4, §5, §6

[7] = target: T3, Tau fibrils (isoform h2N4RTau); test: Direct fluorescence titration on Tau fibrils: Kd and Bmax; type: binding; conditions: direct assay on fibrils, mean ± SD of 3 experiments
Source text: as §4, §5, §6

α-syn fibrils [8] = target: T1, α-syn fibrils; test: Dynamic PET imaging and ex vivo brain radioactivity in rats with α-syn fibrils implanted in the right striatum; conditions: Wistar rat
Source text: The next step in the characterization of our new PET tracer was to evaluate its ability to bind in vivo to α-syn fibrils. For this aim, we performed a simple preliminary imaging experiment in which the same α-syn fibrils as those used in in vitro experiments were surgically and unilaterally implanted in the brains of two adult Wistar rats. The accumulation of [^18F]45 after intravenous (i.v.) injection was compared, in each animal, between the implanted and intact non-implanted side. The fibrils were administered by stereotaxic injection into the right striatum, [^18F]45 was i.v. injected 1 day later, and image acquisition began at the time of injection using a microPET eXplore Vista (GE Healthcare, Buc, France)/CT system during 3 h. PET images were reconstructed and analyzed in three regions of interest, i.e., the left striatum without fibrils (C-ST), the right striatum with fibrils (I-ST), and the cerebellum (CE). At the end of imaging acquisition, each rat was sacrificed, and brain regions were removed, weighed, and their radioactivity measured.
PET imaging experiments were performed with [^18F]45 on two adult male Wistar rats weighing 250–300 g (Janvier, Le Genest-Saint-Isle, France). The animals were housed in a temperature (23 °C) and humidity (43%) controlled environment under a 12-h light-dark cycle with food and water available ad libitum, and experimental procedures were conducted in accordance with the requirements of the European Community Council Directive 2010/63/EU for the care of laboratory animals and with the authorization of the Regional Ethical Committee (Authorization N°2012-03-1).
The rats were scanned one hour after receiving an intra-cerebral administration of α-syn. They were anesthetized with isoflurane (4% in O2, 500 mL/min, Baxter, France), placed on a stereotaxic frame (Stoelting, Phymep, Paris, France) and maintained under isoflurane 2.5% (500 mL/min) during surgery. Body temperature was monitored and kept at 37 °C. Fibrils of α-syn were prepared as described above (solution of 10 mg/mL in PBS). This solution was administered in two sites of the right striatum of each rat using a 25 μL Hamilton Gastight syringe (Hamilton, Massy, France) with a 30-gauge needle (Phymep, Paris, France) connected to a perfusion system. […]
For the PET experiment, each rat was anesthetized with isoflurane (Baxter, Guyancourt, France), at 4–5% in O2 for induction and then 1.5–2% during scanning, and received an i.v. bolus injection of 42–46 MBq of [^18F]45 (molar activity 99.69 GBq/µmol) into the tail vein. […] The quantification of the tracer uptake was extracted from the last 6 120-s frames corresponding to 49–61 min of acquisition after tracer injection. […] PET images were reconstructed and analyzed using PMOD (3.403, PMOD Technologies, Zurich, Switzerland). […]

[9] = calculated from IC50, competition with ThT 500 nM, fibrils 200 nM, mean ± SD of 3 experiments

SMILES | Ki (Aβ1-42 fibrils [2]) | Ki [3] | Ki (α-syn fibrils [4]) | other results
CN([11CH3])c1ccc(-c2cc(-c3ccnc(Br)c3)[nH]n2)cc1 [[^11C]MODAG-001] |  |  |  | better affinity for α-syn as compared to Aβ and tau fibrils (α-syn fibrils [1]; in vitro): around 20 times
O=C1/C(=C\C=C\c2ccc([N+](=O)[O-])cc2)c2ccccc2N1Cc1ccc(OCC[18F])cc1 [[^18F]indolone] |  |  |  | Ki (α-syn fibrils [1]; in vitro): 0.01 µM; selectivity towards Aβ fibrils (Aβ fibrils; α-syn versus Aβ): 27 fold; selectivity for α-syn over tau fibrils (tau fibrils; α-syn versus tau): 5 fold
Cc1ccc(C#Cc2cc3ccccc3[nH]2)cc1 [Compound 32] | 0.0379 ± 0.013 µM | 0.0131 ± 0.002 µM | > 0.1 µM | 
[18F]c1ccc2nc(/C=C/c3ccc(N4CCOCC4)cc3)sc2c1 [[^18F]MFSB] |  |  |  | Kd (α-syn fibrils [1]; read-out: Kd for α-syn): ~0.01 µM; Kd (Aβ fibrils; read-out: Kd for Aβ fibrils): ~0.1 µM; Kd (tau fibrils): ~0.1 µM
CN(C)c1ccc(C#Cc2cc3ccccc3[nH]2)cc1 [Compound 38] | 0.0644 ± 0.04 µM | 0.0276 ± 0.003 µM | 0.036 ± 0.007 µM | 
COc1cccc2ccc(/C=N/N=C/c3ccc4cccc(OCC[18F])c4n3)nc12 [[^18F]BQ2] |  |  |  | Ki (α-syn fibrils [1]): ~0.01 µM; Ki for Aβ (Aβ fibrils; compared with Ki for α-syn): same Ki for Aβ
CN(C)c1ccc(C#Cc2cc3cnccc3[nH]2)cc1 [Compound 44] | 0.0213 ± 0.007 µM |  | 0.026 ± 0.016 µM | Kd (Aβ1-42 fibrils [5]): 0.0036 ± 0.002 µM; Kd (α-syn fibrils [6]): 0.001 ± 0.0005 µM; Kd [7]: 0.0024 ± 0.0009 µM
CCc1ccc(C#Cc2cc3ccccc3[nH]2)cc1 [Compound 33] | 0.0033 ± 0.001 µM | 0.0329 ± 0.008 µM | 0.0359 ± 0.005 µM | 
CNc1ccc(C#Cc2cc3ccccc3[nH]2)cc1 [Compound 37] | 0.0066 ± 0.002 µM | 0.0172 ± 0.003 µM | 0.0478 ± 0.009 µM | 
CN(C)c1ccc(C#Cc2cc3ncccc3[nH]2)cc1 [Compound 41] | 0.0213 ± 0.007 µM | 0.012 ± 0.001 µM |  | Kd (Aβ1-42 fibrils [5]): 0.0029 ± 0.002 µM; Kd (α-syn fibrils [6]): 0.00325 ± 0.0002 µM; Kd [7]: 0.00013 ± 5e-05 µM; Ki (α-syn fibrils [4]; [9]): 0.026 ± 0.016 µM
CN(C)c1ccc(C#Cc2cc3cc(OCCF)ccc3[nH]2)cc1 [Compound 40] | 0.0101 ± 0.005 µM | 0.0158 ± 0.003 µM | > 0.1 µM | 
C(#Cc1cc2ccccc2[nH]1)c1ccccc1 [Compound 31] | 0.0689 ± 0.03 µM | 0.0196 ± 0.002 µM | > 0.1 µM | 
CN(CC[18F])c1ccc(C#Cc2cc3cccnc3[nH]2)cc1 [[^18F]45] |  |  |  | radioactivity accumulation in the three brain regions (CE, I-ST, C-ST) at the end of imaging (α-syn fibrils [8]; ex vivo γ-counting after PET, n = 2): identical radioactivity accumulation; ability to cross the blood–brain barrier (α-syn fibrils [8]; i.v. 42–46 MBq, dynamic PET 3 h): able to cross the blood–brain barrier; brain uptake kinetics (time-activity curves) (α-syn fibrils [8]; i.v. 42–46 MBq, dynamic PET 3 h, CE, I-ST, C-ST): slow uptake and almost no washout; specificity of brain uptake / in vivo binding to implanted α-syn fibrils (α-syn fibrils [8]; α-syn fibrils in right striatum, i.v. 42–46 MBq): non-specific uptake was observed
COc1ccc2[nH]c(C#Cc3ccc(N(C)C)cc3)cc2c1 [Compound 39] |  | 0.0127 ± 0.001 µM | 0.0217 ± 0.006 µM | 
Nc1ccc(C#Cc2cc3ccccc3[nH]2)cc1 [Compound 35] | 0.0262 ± 0.011 µM | 0.123 ± 0.028 µM | 0.0404 ± 0.006 µM | 
COc1ccc(C#Cc2cc3ccccc3[nH]2)cc1 [Compound 34] | 0.0689 ± 0.014 µM | 0.0331 ± 0.007 µM | 0.0967 ± 0.014 µM | 
Nc1cccc(C#Cc2cc3ccccc3[nH]2)c1 [Compound 36] | 0.0153 ± 0.007 µM | 0.0072 ± 0.001 µM | > 0.1 µM | 
Cc1cc2nc(/C=C/c3ccc(O)c(Br)c3)sc2cc1N(C)CCOCC[18F] [[^18F]F0502B] |  |  |  | Kd (α-syn fibrils [1]; read-out: Kd for α-syn): ~0.01 µM; Kd (Aβ fibrils; read-out: Kd for Aβ fibrils): ~0.1 µM; Kd (tau fibrils): ~0.1 µM
CN(C)c1ccc(C#Cc2cc3ccncc3[nH]2)cc1 [Compound 42] | 0.0915 ± 0.011 µM | 0.0084 ± 0.001 µM |  | Kd (Aβ1-42 fibrils [5]): 0.0052 ± 0.003 µM; Kd (α-syn fibrils [6]): 0.0014 ± 0.001 µM; Kd [7]: 0.00049 ± 0.0002 µM; Ki (α-syn fibrils [4]; [9]): 0.0287 ± 0.008 µM
CN(c1ccc(/C=C/c2nc3ccccc3o2)cc1)S(=O)(=O)c1ccccc1[18F] [[^18F]2FBox] |  |  |  | Kd (α-syn fibrils [1]; in vitro, read-out: Kd for α-syn fibrils): 0.0033 µM; Kd (Aβ fibrils; in vitro, read-out: Kd for Aβ): 0.145 µM
